The values that follow come from PubChem BioAssay (NCI).

Among the test systems are DLD-1 colon; DMS 114 small cell lung; DMS 273 small cell lung; HOP-18 NSCLC; KM20L2 colon; MDA-N; P388 leukemia; P388/ADR leukemia; RXF-631 renal; SN12K1 renal; SNB-78 CNS; XF 498 CNS.
Common to all, as to test: NCI tumour cell line growth inhibition, 48 h

Each structure is given as a SMILES string. Where “and” joins values, the source holds several entries; their conditions need not be identical. Equal values may be shown once.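 Grown in 96-well plates, cells were treated for 48 hours with each compound at five concentrations. Insufficient inhibition: endpoint recorded as highest concentration tested. GI50 is the concentration that inhibits growth by half. TGI: total growth inhibition.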

Turning to `COC(=O)NC1C(C)OC(OC2C/C=C(/C)C3C=CC4C(OC5CC(OC6CCC(OC7CC(O)C(OC8CCC(O)C(C)O8)C(C)O7)C(C)O6)C(OC(C)=O)C(C)O5)C(C)CC(C)C4C3(C)/C(O)=C3/C(=O)OC4(CC(C=O)=CC(O)C4/C=C\2C)C3=O)CC1(C)[N+](=O)[O-]` (stereo not drawn), the GI50 was 427 nM with DLD-1 colon; 190 nM with DMS 114 small cell lung; 414 nM in the assay on DMS 273 small cell lung; 365 nM with KM20L2 colon; 590 nM in the assay on SNB-78 CNS; 385 nM in the assay with XF 498 CNS. For the same compound, the TGI in the assay with DLD-1 colon is 11700 nM and 1800 nM; in the assay with DMS 114 small cell lung, 1760 nM and 494 nM; in the assay with DMS 273 small cell lung, 3730 nM and 3260 nM; in the assay on HOP-18 NSCLC, 14500 nM and 3620 nM; with KM20L2 colon, 3680 nM and 1420 nM; with MDA-N, 3520 nM. Besides, the TGI with P388 leukemia was 2050 nM; with P388/ADR leukemia it was 17300 nM; with RXF-631 renal, 10800 nM; with SN12K1 renal, 753 nM; with SNB-78 CNS it was 15400 nM and 26700 nM; with XF 498 CNS, 500 nM and 2060 nM.
